Assay results from patent US20050059645A1, “Methods for the treatment of male and female sexual dysfunction” (priority 2003, published 2005).
Like-named read-outs stand apart in the source and are kept apart here.

Assays:
[1] = test system: ovariectomized female rats; test: Lordosis behavior test (lordosis quotient) in ovariectomized female rats; assay type: in vivo, rat
Procedure: Thus, lordosis was selected as an indicator of restoration of female sexual function in ovariectomized female rats and an appropriate indicator for alleviating symptoms of female sexual dysfunction.
Adult female Sprague Dawley rats (220-250 g) from Charles River Hungary Ltd., Godollo, Hungary, were used. Animals were kept in community cages (4 animals/cage) in a climate-controlled room (23±2° C., 50-60% humidity), with a 14 hour light, 10 hour dark cycle of artificial lighting, using reversed light/dark cycle. Food and water were available ad libitum.
After a minimum five-day acclimatization period, animals were ovariectomized under ether anesthesia, then were left to recover for 3 weeks before testing (reconvalescence). All animals were treated in accordance with the guidelines of the European Communities Council Directive (86/609/EEC) and studies were permitted by the Institutional Animal Care Commission.
Estradiol benzoate and progesterone were obtained from Sigma Chemical Co. Inc., Budapest, Hungary. […] E2-CDS as a 3% complex with HPβCD (E2-CDS-CD) was dissolved in distilled water and diluted with 27% HPβCD solution. E2-CDS-CD was synthesized by Alchem Laboratories Corporation, Alachua, Fla., US.
(§1) After recovery from surgery, ovariectomized female rats were divided into four groups and treated once a day for five days intravenously, via a bolus injection through the tail vein, as follows: (1) control, 27% HPβCD solution; (2) 0.003 mg/kg E2-CDS dissolved in 27% HPβCD solution; (3) 0.01 mg/kg E2-CDS dissolved in 27% HPβCD solution; and (4) 0.03 mg/kg E2-CDS dissolved in 27% HPβCD solution. A minimal number of ovariectomized (8 to 12) females were used per group. Intravenous treatments either with E2-CDS or HPβCD (controls) were carried out daily for 5 days beginning 2 days prior to the first day of behavior observations, in a volume of 0.05 ml/100 g body weight.
The behavior test was conducted in a plexiglass observation cage during the dark cycle. During behavioral observations, only a dim red light was on.
An experienced and active male rat was placed in the arena 5 minutes prior to the female. […] The lordosis quotient (LQ) expresses the estrogen effect on sexual receptivity and was calculated as follows: LQ=100×number of lordoses/10 mounts The observation of the sexual behavior of each female was carried out, in the case of E2-CDS, every day for 22 days; in the case of EB, investigations were carried out every day for 10 days. […] Citrated blood samples were taken by retro-orbital sinus puncture under light ether anesthesia. The samples were stored at 4° C. for one hour, then centrifuged at 1000 g for 10 minutes. Plasma was separated and stored at −80° C. until assayed. Plasma LH concentrations from individual samples were measured by double antibody radioimmunoassay kits obtained from Amersham Pharmacia Biotech, Rome, Italy. […] The limit of detection was 15 pg/ml.
Behavioral changes were analyzed using the Mann-Whitney U test (Siegel, Nonparametric Statistics for the Behavioral Sciences, New York; McGraw-Hill Book Company, Inc., 1956). The Fisher exact test was used for percentage comparisons (Zar, Biostatistical Analysis, Prentice Hall, Inc., Englewood Cliffs, N.J., 1974). Serum LH data were analyzed for each time and treatment group by analysis of variance (ANOVA) followed by Bonferroni posthoc test.

LH [2] = test: Plasma LH by radioimmunoassay in ovariectomized female rats; assay type: in vivo, rat; settings: 0.003, 0.01 and 0.03 mg/kg i.v. daily for 5 days
Procedure: as §1
An experienced and active male rat was placed in the arena 5 minutes prior to the female. […] The lordosis quotient (LQ) expresses the estrogen effect on sexual receptivity and was calculated as follows: LQ=100×number of lordoses/10 mounts The observation of the sexual behavior of each female was carried out, in the case of E2-CDS, every day for 22 days; in the case of EB, investigations were carried out every day for 10 days. […] Citrated blood samples were taken by retro-orbital sinus puncture under light ether anesthesia. […] Plasma LH concentrations from individual samples were measured by double antibody radioimmunoassay kits obtained from Amersham Pharmacia Biotech, Rome, Italy. […]

2OHE1/16OHE1 = test: Phase I: urinary estrone metabolites 2OHE1/16OHE1; assay type: in vivo, human; settings: for amount of urinary 16OHE1 relative to day 1: female, human, in vivo
Excerpt: A brief evaluation of the results follows:

LH [3] = settings: cited from earlier work
LH [4] = settings: cited from earlier work; remark: listed apart in the source
[5] = 0.01 mg/kg i.v. once a day for 5 days
[6] = 0.03 mg/kg i.v. once a day for 5 days

Structure (SMILES): CN1C=CCC(C(=O)O[C@H]2CC[C@H]3[C@@H]4CCc5cc(O)ccc5[C@H]4CC[C@]23C)=C1 [E2-CDS, 17β-[(1-methyl-1,4-dihydro-3-pyridinyl)carbonyloxy]estra-1,3,5(10)-trien-3-ol]
- lordosis quotient, effect ([1]; 0.003 mg/kg i.v. once a day for 5 days): slightly enhanced the lordosis quotient, but these effects were not statistically significant
- duration of LQ increase (after day 11 not statistically significant) [1, 5]: lasted till day 15
- lordosis quotient LQ, effect [1, 5]: significantly enhanced the LQ from day 5 to day 11
- duration of LQ enhancement [1, 6]: from day 3 to day 18
- lordosis quotient LQ, effect [1, 6]: significantly enhanced
- plasma LH levels, effect (LH [2]): suppressed at all dosage levels
- increase of ratio of 2OHE1 to 16OHE1 during treatment (2OHE1/16OHE1; Group A): 63.6%
- increase of ratio of 2OHE1 to 16OHE1 during treatment (2OHE1/16OHE1; Group B): 54.7%
- difference of mean ratios, urine (2OHE1/16OHE1; day 10-1, Group A): 0.15
- difference of mean ratios, urine (2OHE1/16OHE1; day 13-1, Group B): 0.05
- amount of urinary 16OHE1 relative to day 1 (2OHE1/16OHE1; 10 day): 2.48 times
- amount of urinary 16OHE1 relative to day 1 (2OHE1/16OHE1; 13 day): 1.26 times
- duration of LH suppression (LH [3]; 0.1 mg/kg i.v. in 20% (w/v) HPβCD, castrated female rats (Brewster 1988)): 18 days
- LH inhibition (LH [3]; 0.5 mg/kg single i.v., day 12 (Estes 1987, Experiment 3)): heterogeneous results
- LH compared to equimolar estradiol 17-valerate (LH [3]; 0.5 mg/kg single i.v., day 12 or 18 (Estes 1987, Experiment 4)): significantly decreased by E2-CDS compared to estradiol valerate
- plasma LH (LH [3]; 1.0 mg/kg i.v. single and multiple weekly doses (Rahimy 1991)): significantly suppressed for single and multiple doses
- serum LH decrease compared to vehicle (LH [3]; 2 mg/kg single i.v., day 12 (Estes 1987, Experiment 3)): 75%
- serum LH decrease compared to vehicle (LH [3]; 5 mg/kg single i.v., day 12 (Estes 1987, Experiment 3)): 91%
- reduction in serum LH (LH [3]; multiple i.v. injections (7, every two days) 10 to 333 μg/kg (Anderson 1988)): 32-76%
- reduction in serum LH (LH [3]; single i.v. dose 10 μg/kg (Anderson 1988)): no effect
- reduction in serum LH (LH [3]; single i.v. dose 33 to 333 μg/kg, 2 days before sacrifice (Anderson 1988)): 39-52%
- effects on plasma LH (LH [4]; 1280 μg single i.v. dose group): substantial and sustained decreases
- effects on plasma LH (LH [4]; 10-40 μg single i.v. dose group): Minimal effects
- effects on plasma LH (LH [4]; 80-640 μg single i.v. dose group): threshold effects
- time through which LH was lowered in a clinically meaningful way (LH [4]; single 1280 μg i.v. dose, one post-menopausal volunteer): 96 h
